Columns and labels:
CYP2D6 = CYP2D6 (Homo sapiens, UniProt P10635); experiment: in vitro; conditions: probe dextromethorphan
CYP3A4 = CYP3A4 (Homo sapiens, UniProt P08684); experiment: in vitro; conditions: probe testosterone
Chain of CYP3A4 (P08684 whole entry): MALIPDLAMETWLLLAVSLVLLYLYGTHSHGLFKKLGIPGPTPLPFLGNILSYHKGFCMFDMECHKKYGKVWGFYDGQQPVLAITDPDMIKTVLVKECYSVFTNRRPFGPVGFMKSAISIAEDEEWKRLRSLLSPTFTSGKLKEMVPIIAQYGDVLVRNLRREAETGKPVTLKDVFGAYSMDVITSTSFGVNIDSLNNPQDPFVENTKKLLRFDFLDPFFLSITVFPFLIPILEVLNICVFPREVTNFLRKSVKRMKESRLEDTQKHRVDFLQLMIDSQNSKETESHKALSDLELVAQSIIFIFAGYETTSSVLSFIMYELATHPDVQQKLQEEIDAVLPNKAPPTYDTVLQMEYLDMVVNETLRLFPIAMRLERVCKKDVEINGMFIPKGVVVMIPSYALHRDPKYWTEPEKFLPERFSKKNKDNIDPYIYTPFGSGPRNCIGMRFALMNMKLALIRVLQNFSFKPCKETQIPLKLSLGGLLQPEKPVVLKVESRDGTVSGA

Chain of CYP2D6 (P10635 whole entry): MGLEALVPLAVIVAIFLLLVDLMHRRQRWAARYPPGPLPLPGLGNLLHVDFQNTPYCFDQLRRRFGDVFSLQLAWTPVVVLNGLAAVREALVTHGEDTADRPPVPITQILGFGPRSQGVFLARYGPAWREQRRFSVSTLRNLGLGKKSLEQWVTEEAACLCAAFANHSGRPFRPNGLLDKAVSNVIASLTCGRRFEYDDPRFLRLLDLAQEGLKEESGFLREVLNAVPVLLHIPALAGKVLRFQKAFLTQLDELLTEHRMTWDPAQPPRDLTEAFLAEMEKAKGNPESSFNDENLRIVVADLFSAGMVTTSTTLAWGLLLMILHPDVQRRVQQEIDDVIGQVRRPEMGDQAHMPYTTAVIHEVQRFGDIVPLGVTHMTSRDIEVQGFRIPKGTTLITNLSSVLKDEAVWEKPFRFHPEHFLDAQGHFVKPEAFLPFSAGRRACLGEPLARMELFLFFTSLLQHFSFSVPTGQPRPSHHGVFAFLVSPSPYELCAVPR

| inhibition at 1 µM (CYP2D6) | Compound | inhibition at 0.1 µM (CYP3A4) |
| --- | --- | --- |
| 91.3% | C=C[C@H]1C[N@@]2CC[C@H]1C[C@@H]2[C@@H](O)c1ccnc2ccc(OC)cc12 [QUINIDINE] |  |
|  | CC(=O)N1CCN(c2ccc(OCC3COC(Cn4ccnc4)(c4ccc(Cl)cc4Cl)O3)cc2)CC1 (configuration not stated) [KETOCONAZOLE] | 65.9% |
